In brackets after ≈: the same amount, converted by molar mass. Several values for one entry are separate records, joined by “and”; a condition that tells them apart may be missing. Identical values can stand only once.
Key:
[1] = tested on: Escherichia coli (ATCC 8739, Gram-negative); experiment: Minimum inhibitory concentration, microdilution assay; format: cell-based; conditions: lowest concentration with no visible growth; for MIC E.C.: 24 h
Experimental: (§1) Staphylococcus aureus (ATCC 6538, Gram-positive), Escherichia coli (ATCC 8739, Gram-negative), Pseudomonas aeruginosa (ATCC 9027, Gram-negative), and Candida albicans (ATCC 10231, fungus) were used as representative microorganisms to challenge the antimicrobial functions of the oligomers. All bacteria and fungus were frozen at -80° C., and were grown overnight at 37° C. in Mueller Hinton Broth (MHB, BD Singapore) prior to experiments. Fungus was grown overnight at 22° C. in Yeast Mold Broth (YMB, BD Singapore). […] The plates were incubated at 37° C. for 24 h with constant shaking speed at 300 rpm. […] Medium solution containing microbial cells alone were used as control (100% microbial growth). The assay was performed in four replicates and the experiments were repeated at least two times.

[2] = tested on: Pseudomonas aeruginosa (ATCC 9027, Gram-negative); experiment: as above; format: cell-based; conditions: lowest concentration with no visible growth; for MIC P.A.: 24 h
Experimental: as §1

[3] = tested on: Staphylococcus aureus (ATCC 6538, Gram-positive); experiment: as above; format: cell-based; conditions: lowest concentration with no visible growth; for MIC S.A.: 24 h
Experimental: as §1

[4] = tested on: Candida albicans (ATCC 10231, fungus); experiment: as above; format: cell-based; conditions: for MIC C.A. / MIC: Candida albicans ~10^6 CFU/ml, YMB, room temperature, no visible growth; for MIC50 C.A. (value in brackets): Candida albicans, concentration inhibiting 50% fungal growth; for MIC: ATCC10231
Experimental: as §1, with “The plates were incubated at 37° C. for 24 h with constant shaking speed at 300 rpm.” left out

C. albicans = experiment: Checkerboard assay of oligomers with triazoles (FIC); format: cell-based; conditions: Candida albicans; for FIC with Fluconazole: calculated from lowest concentration inhibiting at least 50% growth
Experimental: […]. […] A row and a column in which a serial dilution of each agent was present alone were also prepared for MIC test. Then each solution in the well plate was inoculated with 100 μL of logarithmically grown 10^6 cells/ml C. albicans cells in the 96-well plate. The plate also contained a column with C. albicans only as control (100% cell growth). The cells were incubated at room temperature for 24 h with constant shaking, after which cell growth (i.e. the O.D. at 600 nm) was monitored with a microplate reader (TECAN) Synergy between fluconazole and oligomers was determined by calculating the fractional inhibitory concentration index ([…] was calculated as follows: FIC=(MIColigomer A in combination/MIColigomer A alone)+(MICazole B in combination/MICazole B alone). […] The interaction of selected oligomers with other triazoles such as itraconazole and voriconazole was also investigated using the checkerboard dilution method. For comparison, the interaction of the selected oligomer with a non-triazole antifungal agent […] was also investigated.

[5] = tested on: mouse red blood cells (RBCs); experiment: Hemolysis study; format: cell-based; conditions: oligomer concentration giving 10% hemolysis, 1 h, 37° C.
Experimental: After 1 h incubation at 37° C., the mixture was centrifuged at 2000 rpm for 5 min. Aliquots (100 μl) of the supernatant were transferred to a 96-well plate. Hemolytic activity was determined as a function of hemoglobin release by measuring absorbance of the supernatant at 576 nm using a microplate reader. A control solution that contained only PBS was used as a reference for 0% hemolysis. Absorbance of red blood cells lysed with 0.5% Triton-X was taken as 100% hemolysis. The oligomer concentration which results in 10% hemolysis is indicated as HC10 in Table 1. The data were expressed as mean and S.D. of four replicates. % Hemolysis=[OD576 nm (polymer)−OD576 nm (PBS)]/[OD576 nm (Triton-X)−OD576 nm (PBS)]×100%

[6] = Critical micelle concentration; format: physicochemical
[7] = triazole in combination with IDPBX8
[8] = triazole in combination with IDPPX8

Compound | MIC E.C. [1] | MIC P.A. [2] | MIC S.A. [3] | MIC C.A. [4] | MIC50 C.A. (value in brackets) [4] | CMC [6] | MIC ([1]; ATCC8739, 24 h) | MIC ([2]; ATCC9027, 24 h) | MIC ([3]; ATCC6538, 24 h) | MIC [4] | FIC with Fluconazole (C. albicans) | HC10 [5] | Combined MIC50 component B (C. albicans; [7]) | Combined MIC50 component B (C. albicans; [8]) | Alone MIC50 component B (C. albicans; triazole alone)
CCCCCCCC[N+]12CC[N+](Cc3ccccc3C[N+]34CC[N+](CCCCCCCC)(CC3)CC4)(CC1)CC2.[Br-].[Br-].[Br-].[Br-] [DDO8] | 8 µg/mL | 62 µg/mL | 4 µg/mL | 125 µg/mL | (16) μg/ml | 3038 µg/mL | – | – | – | – | 0.38 | >2000 µg/mL | – | – | –
CCCCCCCC[N+]12CC[N+](Cc3ccc(C[N+]45CC[N+](CCCCCCCC)(CC4)CC5)cc3)(CC1)CC2.[Br-].[Br-].[Br-].[Br-] [DDP8] | 16 µg/mL | 2000 µg/mL | 16 µg/mL | 500 µg/mL | (31) μg/ml | 1896 µg/mL | – | – | – | – | 0.19 | >2000 µg/mL | – | – | –
CCCCCCCC[n+]1ccn(Cc2ccc(C[n+]3ccn(Cc4ccc(C[n+]5ccn(Cc6ccccc6Cn6cc[n+](Cc7ccc(Cn8cc[n+](Cc9ccc(Cn%10cc[n+](CCCCCCCC)c%10)cc9)c8)cc7)c6)c5)cc4)c3)cc2)c1 [IBN-C8, reference compound] | – | – | – | – | – | 226 µg/mL | 8 µg/mL | 16 µg/mL | 4 µg/mL | 16 µg/mL | 2.00 | >2000 µg/mL | – | – | –
CCCCCCCC[n+]1ccn(CC=CC[N+]23CC[N+](CC=CCn4cc[n+](CCCCCCCC)c4)(CC2)CC3)c1.[Br-].[Br-].[Br-].[Br-] [IDIB8] | 16 µg/mL | 500 µg/mL | 8 µg/mL | >500 µg/mL | (32) μg/ml | 1829 µg/mL | – | – | – | – | 0.25 | >2000 µg/mL | – | – | –
CCCCCCCC[n+]1ccn(Cc2ccccc2C[N+]23CC[N+](Cc4ccccc4Cn4cc[n+](CCCCCCCC)c4)(CC2)CC3)c1.[Br-].[Br-].[Br-].[Br-] [IDIO8] | 16 µg/mL | 250 µg/mL | 8 µg/mL | 62 µg/mL | (32) μg/ml | 1667 µg/mL | – | – | – | – | 0.25 | >2000 µg/mL | – | – | –
CCCCCCCC[n+]1ccn(Cc2ccc(C[N+]34CC[N+](Cc5ccc(Cn6cc[n+](CCCCCCCC)c6)cc5)(CC3)CC4)cc2)c1.[Br-].[Br-].[Cl-].[Cl-] [IDIP8] | 16 µg/mL | 1000 µg/mL | 2 µg/mL | 125 µg/mL | (8) μg/ml | 985 µg/mL | – | – | – | – | 0.25 | >2000 µg/mL | – | – | –
itraconazole [reference compound] | – | – | – | 0.016 to 0.03 µg/mL | – | – | – | – | – | – | – | – | 0.015 µg/mL | 0.004 µg/mL | 0.016 µg/mL and 0.03 µg/mL

Now from value to compound, other results behind:

MIC E.C. [1] | MIC P.A. [2] | MIC S.A. [3] | MIC C.A. [4] | MIC50 C.A. (value in brackets) [4] | CMC [6] | MIC ([1]; ATCC8739, 24 h) | MIC ([2]; ATCC9027, 24 h) | MIC ([3]; ATCC6538, 24 h) | MIC [4] | Compound | FIC with Fluconazole (C. albicans) | HC10 [5] | Combined MIC50 component B (C. albicans; [7]) | Combined MIC50 component B (C. albicans; [8]) | Alone MIC50 component B (C. albicans; triazole alone)
62 µg/mL | >1000 µg/mL | 125 µg/mL | >1000 µg/mL | (1000) μg/ml | 1732 µg/mL | – | – | – | – | C(=C\C[N+]12CC[N+](Cc3ccc(C[n+]4ccn(Cc5ccccc5)c4)cc3)(CC1)CC2)/C[N+]12CC[N+](Cc3ccc(C[n+]4ccn(Cc5ccccc5)c4)cc3)(CC1)CC2 [IDPBXb] | – | >2000 µg/mL | – | – | –
62 µg/mL | >1000 µg/mL | 125 µg/mL | 2000 µg/mL | (500) μg/ml | 1860 µg/mL | – | – | – | – | c1ccc(Cn2cc[n+](Cc3ccc(C[N+]45CC[N+](Cc6ccc(C[N+]78CC[N+](Cc9ccc(C[n+]%10ccn(Cc%11ccccc%11)c%10)cc9)(CC7)CC8)cc6)(CC4)CC5)cc3)c2)cc1 [IDPPXb] | 0.5 | – | – | – | –
– | – | – | – | – | – | – | – | – | 0.025 to 0.1 µg/mL (≈ 0.0716 to 0.286 µM) | C[C@@H](c1ncncc1F)[C@](O)(Cn1cncn1)c1ccc(F)cc1F [Voriconazole, voriconazole, reference compound] | – | – | 0.006 µg/mL | 0.003 µg/mL | –

— patent US20220022457A1, “Microbicide Ammonium-Imidazolium Oligomers and Their Anti-Fungal Compositions” (AGENCY FOR SCIENCE, TECHNOLOGY AND RESEARCH, priority 2018, published 2022)
